Reference: PubChem BioAssay (NCI)
Values joined by “and” are separate entries in the source; they are usually repeats but may differ in a detail not shown here. Equal values may be shown once.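 Each compound was tested at five concentrations against cells in 96-well plates for 48 hours. GI50 marks 50% less growth. TGI: total growth inhibition.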

Assays:
Test in all cases: NCI anticancer screen, dose series, 48 h
[1] = test system: K-562 leukemia
[2] = test system: OVCAR-4 ovarian
[3] = test system: MDA-MB-231 breast
[4] = test system: SW-620 colon
[5] = test system: UACC-257 melanoma
[6] = test system: UO-31 renal
[7] = test system: KM12 colon
[8] = test system: HCT-116 colon
[9] = test system: NCI-H226 lung
[10] = test system: HOP-62 NSCLC

SMILES: C=CC(=O)N1CC[C@@H](Oc2nc(Nc3ccc(N4CCC(N5CCN(C)CC5)CC4)cc3)c(C(N)=O)nc2CC)C1
- GI50 [1]: > 100 µM
- TGI [1]: > 100 µM
- GI50 [2]: > 100 µM
- TGI [2]: > 100 µM
- GI50 [3]: > 100 µM
- TGI [3]: > 100 µM
- GI50 [4]: > 100 µM
- TGI [4]: > 100 µM
- GI50 [5]: > 100 µM
- TGI [5]: > 100 µM
- GI50 [6]: > 100 µM
- TGI [6]: > 100 µM
- GI50 [7]: > 100 µM
- TGI [7]: > 100 µM
- GI50 [8]: > 100 µM
- TGI [8]: > 100 µM
- GI50 [9]: > 100 µM
- TGI [9]: > 100 µM

SMILES: O=c1c2ccccc2nc(-c2ccccc2Cl)n1NC1OC(CO)C(O)C(O)C1O (stereo not drawn)
- TGI [1]: > 100 µM
- TGI [2]: > 100 µM
- TGI [4]: > 100 µM
- TGI [5]: > 100 µM
- TGI [6]: > 100 µM
- TGI [7]: > 100 µM
- TGI [8]: > 100 µM
- TGI [9]: > 100 µM
- TGI [10]: > 100 µM

SMILES: COc1cc(C2C(C(=O)Nc3ccc(Cl)c(Cl)c3)=C(C)NC(C)=C2C(=O)Nc2ccc(Cl)c(Cl)c2)ccc1O
- TGI [1]: 26.2 µM
- TGI [2]: 23 µM
- TGI [4]: 29 µM
- TGI [5]: 28.7 µM
- TGI [6]: 25.6 µM
- TGI [7]: 27 µM
- TGI [9]: 40.8 µM
- TGI [10]: 23.1 µM

SMILES: CC1CCCC2(O1)OC1CC(=O)OC1C1=C2C(=O)c2ccccc2C1=O (stereo not drawn)
- TGI [2]: 3.83 µM
- TGI [4]: 6.42 µM
- TGI [5]: 3.95 µM
- TGI [6]: 5.41 µM
- TGI [7]: 31.7 µM
- TGI [9]: 4.51 µM
- TGI [10]: 30.2 µM

SMILES: O=[N+]([O-])c1ccc(-c2ccc(C3=Nn4c(nnc4-c4ccc(Cl)cc4)SC3)o2)cc1
- TGI [1]: > 100 µM
- TGI [2]: > 100 µM
- TGI [4]: > 100 µM
- TGI [5]: > 100 µM
- TGI [6]: > 100 µM
- TGI [7]: > 100 µM
- TGI [8]: > 100 µM
- TGI [9]: > 100 µM
- TGI [10]: > 76.3 µM

SMILES: O=C1c2cccc3cc4ccccc4c(c23)C(=O)N1CCCNCCNCCCN1C(=O)c2cccc3cc4ccccc4c(c23)C1=O
- TGI [1]: 0.337 µM
- TGI [2]: 1.58 µM
- TGI [3]: 1.66 µM
- TGI [5]: 2.25 µM
- TGI [6]: 1.96 µM
- TGI [7]: 1.29 µM
- TGI [8]: 0.168 µM
- TGI [10]: 1.72 µM

SMILES: COc1cccc2c1C(=N)c1c(O)c3c(c(O)c1C2=O)C[C@@](O)(C(C)=O)C[C@@H]3OC1CC(N)C(O)C(C)O1 (stereo partly drawn)
- TGI [1]: 3.34 µM and 14.8 µM and 6.67 µM
- TGI [2]: 7.58 µM and 7.84 µM and 8 µM
- GI50 [3]: 0.445 µM
- TGI [3]: 2.18 µM
- TGI [4]: 4.39 µM and 8.73 µM and 10.5 µM
- TGI [5]: 5.01 µM and 12.1 µM and 6.67 µM
- TGI [7]: 2.55 µM and 1.94 µM and 10.4 µM
- TGI [8]: 1.77 µM and 2.53 µM and 10.4 µM

SMILES: COc1ccc(C(=O)CC(Cl)=C(Cl)Cl)cc1
- GI50 [2]: 19.8 µM
- TGI [2]: 56.1 µM
- GI50 [3]: 33.1 µM
- TGI [3]: > 100 µM
- GI50 [4]: 33.5 µM
- TGI [4]: > 100 µM
- GI50 [5]: 34.4 µM
- TGI [5]: > 100 µM
- GI50 [6]: 25.8 µM
- TGI [6]: 54.7 µM
- GI50 [7]: 71.2 µM
- TGI [7]: > 100 µM
- GI50 [8]: 22.2 µM
- TGI [8]: 63.4 µM
- GI50 [9]: 34.1 µM
- TGI [9]: 85.7 µM
- GI50 [10]: 61.4 µM
- TGI [10]: > 100 µM

SMILES: C=C1C(=O)O[C@H]2[C@H]1CC/C(Cn1cc(CNC(=O)c3cc4ccccc4[nH]3)nn1)=C\CC[C@@]1(C)O[C@@H]21
- GI50 [2]: 4.52 µM
- TGI [2]: 17.1 µM
- GI50 [3]: 1.97 µM
- TGI [3]: 3.78 µM
- GI50 [4]: 1.97 µM
- TGI [4]: 3.94 µM
- GI50 [5]: 4 µM
- TGI [5]: 16 µM
- GI50 [6]: 10.4 µM
- TGI [6]: 22.1 µM
- GI50 [7]: 11.4 µM
- TGI [7]: 26.7 µM
- GI50 [8]: 1.59 µM
- TGI [8]: 3.56 µM
- GI50 [9]: 2.57 µM
- TGI [9]: 6.15 µM
- GI50 [10]: 13.3 µM
- TGI [10]: 31.3 µM

SMILES: COc1cc(OC)c(-c2oc3ccccc3c(=O)c2O)c(OC)c1
- TGI [1]: > 100 µM
- TGI [3]: > 100 µM
- TGI [4]: > 100 µM
- TGI [5]: > 100 µM
- TGI [6]: > 100 µM
- TGI [7]: > 100 µM
- TGI [8]: > 100 µM
- TGI [9]: > 100 µM
- TGI [10]: > 31.5 µM

SMILES: S=C(N/N=C/c1ccccc1)NC1CC(c2ccccc2)Oc2ccccc21 (stereo not drawn)
- TGI [1]: > 100 µM
- TGI [2]: 71.3 µM
- TGI [4]: > 100 µM
- TGI [6]: > 100 µM
- TGI [7]: > 100 µM
- TGI [8]: > 100 µM
- TGI [9]: > 100 µM

SMILES: Oc1c(Br)cc(Br)c2cccnc12
- GI50 [2]: 4.09 µM
- TGI [2]: 97 µM
- GI50 [3]: 4.43 µM
- TGI [3]: 28.9 µM
- GI50 [4]: 4.58 µM
- TGI [4]: 72.8 µM
- GI50 [5]: 2.22 µM
- TGI [5]: 6 µM
- GI50 [6]: 2.56 µM
- TGI [6]: 16.5 µM
- GI50 [7]: 4.17 µM
- TGI [7]: 23.4 µM
- GI50 [8]: 3.22 µM
- TGI [8]: 10.6 µM
- GI50 [9]: 5.09 µM
- TGI [9]: 30.2 µM
- GI50 [10]: 3.57 µM
- TGI [10]: 30.8 µM

SMILES: COC(=O)c1cc2c([nH]c3ccccc32)c(-c2nc3cc(N(S(=O)(=O)c4ccc(C)cc4)S(=O)(=O)c4ccc(C)cc4)c(OC)cc3cc2CO)n1
- GI50 [1]: > 100 µM
- TGI [1]: > 100 µM
- GI50 [2]: > 100 µM
- TGI [2]: > 100 µM
- GI50 [3]: 78.6 µM
- TGI [3]: > 100 µM
- GI50 [4]: > 100 µM
- TGI [4]: > 100 µM
- GI50 [5]: > 100 µM
- TGI [5]: > 100 µM
- GI50 [6]: > 100 µM
- TGI [6]: > 100 µM
- GI50 [7]: > 100 µM
- TGI [7]: > 100 µM
- GI50 [8]: > 100 µM
- TGI [8]: > 100 µM
- GI50 [9]: > 100 µM
- TGI [9]: > 100 µM

SMILES: COCC(O)CN1C(N)=NC(O)C1O (stereo not drawn)
- TGI [4]: > 100 µM
- TGI [5]: > 100 µM
- TGI [6]: > 100 µM
- TGI [7]: > 100 µM
- TGI [9]: > 100 µM
- TGI [10]: > 100 µM

SMILES: Cc1nc2c(=O)n(C)c(=O)nc-2n(-c2ccc(Cl)cc2)c1C
- TGI [1]: > 100 µM
- TGI [2]: 84.4 µM
- TGI [4]: > 100 µM
- TGI [5]: > 100 µM
- TGI [6]: > 100 µM
- TGI [7]: > 100 µM
- TGI [9]: > 100 µM
- TGI [10]: > 100 µM

SMILES: O=C1[C@@H]2C3C=CC([C@H]4C(=O)N(CO)C(=O)[C@@H]34)[C@@H]2C(=O)N1CO
- TGI [1]: > 100 µM
- TGI [2]: > 100 µM
- TGI [4]: > 65.5 µM
- TGI [5]: > 100 µM
- TGI [6]: > 100 µM
- TGI [7]: > 100 µM
- TGI [8]: > 57.4 µM
- TGI [9]: > 100 µM
- TGI [10]: > 100 µM

SMILES: Cc1ccc(S(=O)(=O)NC2(C=O)CCC(C(C)(C)C)CC2)cc1 (stereo not drawn)
- TGI [1]: 70.8 µM
- TGI [2]: > 100 µM
- TGI [4]: > 100 µM
- TGI [5]: > 100 µM
- TGI [6]: > 100 µM
- TGI [7]: 84.5 µM
- TGI [8]: 68.8 µM
- TGI [9]: > 100 µM
- TGI [10]: > 100 µM

SMILES: Cc1cccc(NC(=O)c2sc3nc4c(cc3c2N)CCC4)c1C
- GI50 [2]: 1.33 µM
- TGI [2]: 22.8 µM
- GI50 [3]: 0.594 µM
- TGI [3]: 29.3 µM
- GI50 [4]: 0.359 µM
- TGI [4]: > 100 µM
- GI50 [5]: 2.67 µM
- TGI [5]: 46.6 µM
- GI50 [6]: 0.615 µM
- TGI [6]: > 100 µM
- GI50 [7]: 0.407 µM
- TGI [7]: 41 µM
- GI50 [8]: 0.381 µM
- TGI [8]: 11.8 µM
- GI50 [9]: 2.65 µM
- TGI [9]: 36.8 µM
- GI50 [10]: 0.428 µM
- TGI [10]: 17.4 µM

SMILES: CCCCCC1C2C(=O)NC(=O)C1C(=O)NC2=O (stereo not drawn)
- TGI [1]: > 100 µM
- TGI [2]: > 100 µM
- TGI [4]: > 100 µM
- TGI [5]: > 100 µM
- TGI [6]: > 100 µM
- TGI [7]: > 100 µM
- TGI [9]: > 100 µM
- TGI [10]: > 100 µM
